Measurements reported in US20240335569A1, “FIBROBLAST ACTIVATION PROTEIN INHIBITORS AND USE THEREOF” (3 B PHARMACEUTICALS GMBH, priority 2021, published 2024).

Legend:
Recombinant human DPP4 = Recombinant human DPP4 (Homo sapiens (Human), UniProt P27487); assay: DPP4 protease activity assay; type: biochemical
Protocol: (§1) The PREP activity assay was performed using the FACS buffer (PBS including 1% FBS, Sigma-Aldrich, Cat #D8537). […] The DPP4 activity assay was performed in DPP assay buffer (25 mM Tris, pH 8.0). […] Four parameter logistic (4PL) curve fitting and pIC50 calculations were performed using ActivityBase software.

[1] = target: FAP-expressing human WI-38 fibroblasts (Homo sapiens (Human), UniProt Q12884); assay: FACS binding assay (competitive, Cy5-labeled 3BP-2935)
Sequence of FAP-expressing human WI-38 fibroblasts (Q12884 whole entry): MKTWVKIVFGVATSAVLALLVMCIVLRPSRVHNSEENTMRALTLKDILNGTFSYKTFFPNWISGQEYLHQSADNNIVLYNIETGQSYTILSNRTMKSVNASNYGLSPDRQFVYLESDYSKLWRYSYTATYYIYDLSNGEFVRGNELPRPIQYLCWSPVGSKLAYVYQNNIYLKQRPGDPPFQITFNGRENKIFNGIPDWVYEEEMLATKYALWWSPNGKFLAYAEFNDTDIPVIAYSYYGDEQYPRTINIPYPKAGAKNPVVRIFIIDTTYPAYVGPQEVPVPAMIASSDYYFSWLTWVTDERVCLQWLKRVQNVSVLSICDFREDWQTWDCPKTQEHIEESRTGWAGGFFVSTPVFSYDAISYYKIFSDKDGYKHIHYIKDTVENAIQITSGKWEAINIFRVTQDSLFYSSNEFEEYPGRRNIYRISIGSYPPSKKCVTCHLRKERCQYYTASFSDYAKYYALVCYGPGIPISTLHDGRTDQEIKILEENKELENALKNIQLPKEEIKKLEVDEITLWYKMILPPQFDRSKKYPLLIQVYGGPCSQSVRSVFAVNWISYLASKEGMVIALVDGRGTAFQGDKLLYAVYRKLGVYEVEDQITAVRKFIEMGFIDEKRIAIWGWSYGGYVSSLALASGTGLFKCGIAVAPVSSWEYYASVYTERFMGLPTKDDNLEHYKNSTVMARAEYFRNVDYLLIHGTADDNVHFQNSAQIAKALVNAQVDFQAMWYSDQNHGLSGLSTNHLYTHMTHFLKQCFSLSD
Protocol: In order to determine binding of compounds according to the present invention to FAP-expressing cells, a competitive FACS binding assay was established. […] Cells were diluted in FACS buffer to a final concentration of 100.000 cells per ml and 200 μl of the cell suspension are transferred to a u-shaped non-binding 96-well plate (Greiner). […] Cell were washed twice with FACS buffer (see above) and resuspended in 200 μl FACS buffer. Cells were analyzed in an Attune NxT flow cytometer (Thermo Fisher Scientific). Median fluorescence intensities (Cy5 channel) were calculated by Attune NxT software and plotted against test compound concentrations. Four parameter logistic (4PL) curve fitting and pIC50 calculations were performed using ActivityBase software.

Human recombinant FAP [2] = target: T1, Human recombinant FAP (Homo sapiens (Human), UniProt Q12884); assay: Surface plasmon resonance assay (Biacore T200, SCK); type: binding; details: for HL [min] (Biacore): SPR dissociation half-life
Protocol: Surface plasmon resonance studies were performed using a Biacore™ T200 SPR system (Cytiva, formerly GE Healthcare). Briefly, polarized light is directed towards a gold-labeled sensor surface, and minimum intensity reflected light is detected. The angle of reflected light changes as molecules bind and dissociate. […] Test compounds are contacted with the loaded surface, and a real-time interaction profile with the FAP ligand is recorded in a sensorgram. In real-time, the association and dissociation of a binding interaction is measured, enabling calculation of association and dissociation rate constants and the corresponding affinity constants. Importantly, a background response is generated due to the difference in the refractive indices of the running and sample buffers, as well as unspecific binding of the test compounds to the flow cell surface. This background is measured and subtracted by running the sample on a control flow cell coated with the same density of capture antibody in the absence of immobilized FAP. Furthermore, baseline drift correction of the binding data is performed, which is caused by slow dissociation of the captured FAP from the immobilized antibody. This drift is measured by injecting running buffer through a flow cell with the antibody and FAP immobilized to the sensor surface.
Biacore™ CM5 sensor chips were used. […] A 150 μL aliquot was transferred into plastic vials and placed into the sample rack of the Biacore™ T200 instrument. Amine Coupling Kit Reagent solutions were transferred into plastic vials and placed into the sample rack: 90 μL of 0.4 M 1-ethyl-3-(3-dimethylaminopropyl) carbodiimide (EDC), and 90 μL of 0.1 M N-hydroxysuccinimide (NHS). A 130 μL aliquot of 1 M ethanolamine-HCl, pH 8.5, was transferred into plastic vials and placed into the sample rack. The Biacore™ liquid system was set-up as follows: Separate bottles containing distilled water (1 L), Running Buffer (500 mL), as well as an empty bottle for waste were placed onto the buffer tray. A preinstalled program for immobilization was used, with an immobilization level of 7000 RU. Immobilization was performed at 25° C. The immobilization procedure of anti-FAP antibodies was performed, as described in the Table 4.
Human recombinant FAP was diluted in Running Buffer to a final concentration of 20 μg/mL. A 100 μL aliquot of human FAP-Working-Solution was transferred into plastic vials and placed into a sample rack. A 0.5 mM Compound-Stock-Solution was prepared by dissolving each compound in DMSO. For each test compound, Compound-Stock-Solutions were diluted in Running Buffer (HBST) at 500 nM and further diluted with HBST-DMSO Buffer (0.1% DMSO). SPR binding analyses for binary complexes were performed in SCK mode at 25° C. Following three SCK measurements, a baseline drift was assessed by injecting running buffer through a flow cell, with the antibody and FAP immobilized to the sensor surface.
For each test compound, SPR raw data in the form of resonance units (RU) were plotted as sensorgrams using the Biacore™ T200 control software. The signal from the blank sensorgram was subtracted from that of the test compound sensorgram (blank corrected). The blank corrected sensorgram was corrected for baseline drift by subtracting the sensorgram of a SCK run without the test compound (running buffer only). The association rate (kon), dissociation rate (koff), dissociation constant (KD), and t1/2 were calculated from Blank-normalized SPR data using the 1:1 Langmuir binding model from the Biacore™ T200 evaluation software. Raw data and fit results were imported as text files in IDBS. The pKD value (negative decadic logarithm of dissociation constant) was calculated in the IDBS excel template.
Target sequence in this assay (Q12884 whole entry): as above

Human recombinant FAP [3] = target: T1, Human recombinant FAP; assay: FAP protease activity assay (human), FRET-based; type: biochemical
Protocol: (§2) In order to determine the inhibitory activity a FRET-based FAP protease activity assay was established.
Four parameter logistic (4PL) curve fitting and pIC50 calculations were performed using ActivityBase software (IDBS).
Target sequence in this assay (Q12884 26-760): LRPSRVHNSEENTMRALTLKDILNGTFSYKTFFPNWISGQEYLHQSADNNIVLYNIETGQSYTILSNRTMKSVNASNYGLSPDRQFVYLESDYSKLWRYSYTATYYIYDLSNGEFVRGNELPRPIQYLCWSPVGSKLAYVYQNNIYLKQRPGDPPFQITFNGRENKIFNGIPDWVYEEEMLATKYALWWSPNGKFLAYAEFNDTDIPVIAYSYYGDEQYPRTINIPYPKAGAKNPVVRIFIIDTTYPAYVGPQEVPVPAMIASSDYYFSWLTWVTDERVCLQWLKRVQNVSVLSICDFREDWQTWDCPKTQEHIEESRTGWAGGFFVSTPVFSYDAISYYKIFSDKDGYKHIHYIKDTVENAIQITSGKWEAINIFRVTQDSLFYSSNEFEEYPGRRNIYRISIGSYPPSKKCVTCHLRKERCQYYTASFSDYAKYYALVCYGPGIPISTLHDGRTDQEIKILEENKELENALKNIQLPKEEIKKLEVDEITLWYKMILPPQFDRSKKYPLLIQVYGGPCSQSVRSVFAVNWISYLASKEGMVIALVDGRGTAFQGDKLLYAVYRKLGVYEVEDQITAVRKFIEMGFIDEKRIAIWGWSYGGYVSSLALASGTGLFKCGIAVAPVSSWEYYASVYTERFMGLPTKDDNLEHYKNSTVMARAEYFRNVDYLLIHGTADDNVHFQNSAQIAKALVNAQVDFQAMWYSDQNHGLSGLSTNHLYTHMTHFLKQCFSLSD

Recombinant mouse FAP = Recombinant mouse FAP (Mus musculus (Mouse), UniProt P97321); assay: FAP protease activity assay (mouse), FRET-based; type: biochemical
Sequence of Recombinant mouse FAP (P97321 whole entry): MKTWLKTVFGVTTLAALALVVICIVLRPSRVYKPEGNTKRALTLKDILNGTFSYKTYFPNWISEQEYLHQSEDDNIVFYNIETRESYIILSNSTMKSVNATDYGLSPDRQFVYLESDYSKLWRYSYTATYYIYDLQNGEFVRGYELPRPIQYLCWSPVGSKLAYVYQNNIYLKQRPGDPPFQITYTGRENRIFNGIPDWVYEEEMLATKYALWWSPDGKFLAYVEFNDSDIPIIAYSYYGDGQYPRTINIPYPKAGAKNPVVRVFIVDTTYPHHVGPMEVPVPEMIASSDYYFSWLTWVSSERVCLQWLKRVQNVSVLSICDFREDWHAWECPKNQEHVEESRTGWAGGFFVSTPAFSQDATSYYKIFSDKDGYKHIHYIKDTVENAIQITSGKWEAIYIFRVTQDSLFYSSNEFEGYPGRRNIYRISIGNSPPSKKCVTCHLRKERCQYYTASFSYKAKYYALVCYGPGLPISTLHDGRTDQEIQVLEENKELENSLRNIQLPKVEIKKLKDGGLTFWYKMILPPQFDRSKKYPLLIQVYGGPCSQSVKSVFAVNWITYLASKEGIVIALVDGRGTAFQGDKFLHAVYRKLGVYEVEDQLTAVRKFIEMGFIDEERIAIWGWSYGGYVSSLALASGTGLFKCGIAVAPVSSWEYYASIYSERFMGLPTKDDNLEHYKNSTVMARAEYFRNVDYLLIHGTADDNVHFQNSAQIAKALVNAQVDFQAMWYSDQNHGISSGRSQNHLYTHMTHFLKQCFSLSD
Protocol: as §2
Four parameter logistic (4PL) curve fitting and pIC50 calculations were performed using ActivityBase software.

HT-29 cells = assay: Stability in the presence of tumor cells (HT-29), FAP IC50 of supernatants; type: in vitro ADME, human
Protocol: Cells were cultured in McCoys's 5A modified medium (Biochrom, #F1015) including 10% fetal bovine serum (FBS), 2 mM L-glutamine, 100 U/ml penicillin and 100 μg/mL streptomycin (growth medium). […] 1 mL of the cell suspension were seeded in 24-well plates and incubated overnight at 37° C. and 5% CO2. The next day, cells were washed twice and growth medium was exchanged against DMEM without phenol red (Biochrom, #F0475) including 2 mM L-glutamine. Test compound was diluted in DMEM without phenol red (Biochrom, #F0475) including 2 mM L-glutamine. 400 μL of a 10 μM solution of the test compound was incubated for 24 hours at 37° C. and 5% CO2 in the presence of cells as well as in control wells (without cells) of the same 24-well plate.
25 μL of a 30 μM substrate solution, diluted in assay buffer, was added. All solutions were equilibrated at 37° C. prior to use. […] RFU/sec was calculated by SoftMax Pro software and plotted against test compound concentration. Four parameter logistic (4PL) curve fitting and IC50/pIC50 calculations were performed using GraphPad Prism 9.1 software.
The stability of exemplary compounds was further assessed in the presence of a variety of human cell lines from different tissue origins. […] Compounds were diluted in DMEM without phenol red (Biochrom, #F0475) including 2 mM L-glutamine. 400 μL of a 10 μM solution of the test compound was incubated for 24 hours at 37° C. and 5% CO2 in the presence of cells as well as in control wells (without cells) of the same 24-well plate. IC50/pIC50 determination of the supernatants was performed as described above.

recombinant human PREP = recombinant human PREP (Homo sapiens (Human), UniProt P48147); assay: PREP protease activity assay; type: biochemical
Sequence of recombinant human PREP (P48147 whole entry): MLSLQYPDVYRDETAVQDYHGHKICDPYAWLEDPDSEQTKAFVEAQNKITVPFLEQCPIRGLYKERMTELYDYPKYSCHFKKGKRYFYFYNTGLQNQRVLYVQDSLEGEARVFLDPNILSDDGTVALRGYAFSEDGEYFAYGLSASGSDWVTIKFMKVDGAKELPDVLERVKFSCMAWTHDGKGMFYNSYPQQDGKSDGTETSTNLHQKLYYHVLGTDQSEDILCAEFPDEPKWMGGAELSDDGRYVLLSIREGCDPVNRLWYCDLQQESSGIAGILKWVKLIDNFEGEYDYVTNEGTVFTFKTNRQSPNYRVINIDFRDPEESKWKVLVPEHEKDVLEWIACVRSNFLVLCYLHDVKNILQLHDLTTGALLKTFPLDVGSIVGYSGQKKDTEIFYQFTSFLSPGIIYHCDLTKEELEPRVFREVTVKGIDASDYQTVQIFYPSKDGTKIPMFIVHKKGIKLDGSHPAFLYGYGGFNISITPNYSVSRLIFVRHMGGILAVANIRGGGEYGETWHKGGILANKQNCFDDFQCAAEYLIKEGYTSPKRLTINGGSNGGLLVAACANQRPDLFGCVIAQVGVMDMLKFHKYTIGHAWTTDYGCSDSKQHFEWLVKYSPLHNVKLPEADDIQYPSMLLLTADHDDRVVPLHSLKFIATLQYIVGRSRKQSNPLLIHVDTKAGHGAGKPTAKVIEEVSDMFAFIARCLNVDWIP
Protocol: as §1

[4] = FAP-expressing WI-38 fibroblasts
[5] = recombinant human FAP, FRET protease activity
[6] = recombinant mouse FAP, FRET protease activity
[7] = human FAP protease activity, FRET
[8] = recombinant mouse FAP protease activity

Sequence of Recombinant human DPP4 (P27487 whole entry): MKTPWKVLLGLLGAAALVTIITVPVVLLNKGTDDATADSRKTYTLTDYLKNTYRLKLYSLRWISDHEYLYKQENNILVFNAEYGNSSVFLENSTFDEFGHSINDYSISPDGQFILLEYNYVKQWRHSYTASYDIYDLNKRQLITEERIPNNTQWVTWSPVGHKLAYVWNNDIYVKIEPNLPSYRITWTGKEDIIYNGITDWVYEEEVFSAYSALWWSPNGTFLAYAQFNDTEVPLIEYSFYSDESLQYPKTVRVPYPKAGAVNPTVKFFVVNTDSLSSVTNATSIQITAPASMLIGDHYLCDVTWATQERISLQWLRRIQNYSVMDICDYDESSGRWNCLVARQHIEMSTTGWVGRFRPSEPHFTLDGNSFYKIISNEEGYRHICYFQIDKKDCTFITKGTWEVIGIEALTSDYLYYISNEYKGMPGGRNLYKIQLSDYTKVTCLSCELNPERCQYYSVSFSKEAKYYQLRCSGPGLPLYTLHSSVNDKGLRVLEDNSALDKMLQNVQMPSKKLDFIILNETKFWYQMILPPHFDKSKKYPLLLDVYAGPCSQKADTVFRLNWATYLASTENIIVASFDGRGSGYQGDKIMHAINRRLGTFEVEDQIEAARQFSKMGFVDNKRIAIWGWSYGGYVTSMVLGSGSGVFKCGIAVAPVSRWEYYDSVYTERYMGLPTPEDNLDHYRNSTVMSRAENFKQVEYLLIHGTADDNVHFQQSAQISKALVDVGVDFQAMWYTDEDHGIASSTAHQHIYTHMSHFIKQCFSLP

| pIC50 (DPP4) (Recombinant human DPP4) | pIC50 (FACS) [1, 4] | pKD (Biacore) (Human recombinant FAP [2]; SPR) | HL [min] (Biacore) (Human recombinant FAP [2]) | pIC50 (Activity) (Human recombinant FAP [3]; [5]) | pIC50 (PREP) (recombinant human PREP) | pIC50 (FACS) ([1]; WI-38 fibroblasts) | pIC50 (Activity) (Human recombinant FAP [3]; [7]) | pIC50 (mouseFAP) (Recombinant mouse FAP; [8]) | SMILES | other results |
| --- | --- | --- | --- | --- | --- | --- | --- | --- | --- | --- |
| <6 | 8.7 | 10.2 | 35.5 min | 9.3 |  |  |  |  | N#C[C@@H]1CC(F)(F)CN1C(=O)CNC(=O)c1ccnc2ccc(OCCCN3CCN(C(=O)CN4CCN5CCN6CCN(CC4)CC(=O)[O][Lu]([O]C(=O)C6)[O]C(=O)C5)CC3)cc12 [Compound 3BP-3469] | pIC50 (mouseFAP) (Recombinant mouse FAP; [6]): 9.1; pIC50 (incubation in cell medium w/o HT-29) (HT-29 cells; 10 μM compound, 24 hours at 37° C. in control wells without cells, supernatant tested on recombinant human FAP): 9.2; pIC50 (incubation in the presence of HT-29 cells) (HT-29 cells; 10 μM compound, 24 hours at 37° C. with HT-29 cells, supernatant tested on recombinant human FAP): 8.3; Residual activity after incubation with HT-29 cells for 24 hours (%) (HT-29 cells; HT-29 cells, 24 hours): 13% |
| <6 | 7.8 | 8.6 | 0.4 min | 8.4 | 8.9 |  |  |  | CC(C)(C)c1nnc(C(=O)[C@@H]2CCCN2C(=O)CNC(=O)c2ccnc3ccccc23)o1 [Compound 3BP-3632] | pIC50 (mouseFAP) (Recombinant mouse FAP; [6]): 8.4 |
| <6 | 8.2 | 9.3 | 5.7 min | 8.7 | <6 |  |  |  | CS(=O)(=O)c1cccc(-c2ccc3c(C(=O)NCC(=O)N4CCC[C@H]4C#N)ccnc3c2)c1 [Compound 3BP-3133] |  |
| <6 |  | 10 | 64 min |  |  | 8.5 | 9.3 | 8.7 | N#C[C@@H]1CCCN1C(=O)CNC(=O)c1ccnc2ccc(-c3ccc(C(=O)NCCCNC(O)CN4CCN5CCN6CCN(CC4)CC(=O)[O][Eu]([O]C(=O)C6)[O]C(=O)C5)cc3)cc12 (stereo partly shown) [Compound 3BP-3830] |  |
| <6 | 8.4 | 9.4 | 2.5 min | 9 | <6 |  |  |  | CS(=O)(=O)c1cccc(-c2ccc3nccc(C(=O)NCC(=O)N4CCC[C@H]4C#N)c3c2)c1 [Compound 3BP-3132] |  |
| <6 | 8.6 |  |  | 8.8 | <6 |  |  |  | N#C[C@@H]1CCCN1C(=O)CNC(=O)c1ccnc2cc(-c3cccc(C(=O)O)c3)ccc12 [Compound 3BP-3293] |  |
| <6 | 8.4 | 9.8 | 12 min | 9.2 | <6 |  |  |  | CS(=O)(=O)c1ccc(-c2ccc3nccc(C(=O)NCC(=O)N4CCC[C@H]4C#N)c3c2)cc1 [Compound 3BP-3235] |  |
| <6 | 7 | 7.9 | 0.3 min | 7.3 | 7.6 |  |  |  | O=C(NCC(=O)N1CCC[C@H]1C(=O)c1nccs1)c1ccnc2ccccc12 [Compound 3BP-3206] |  |
| <6 | 8.7 | 10.5 | 69 min | 9.2 | <6 |  |  |  | N#C[C@@H]1CC(F)(F)CN1C(=O)CNC(=O)c1ccnc2c1=CC(OCCCN1CCN(C(=O)CN3CCN4CCN5CCN(CC3)CC(=O)[O][In]([O]C(=O)C5)[O]C(=O)C4)CC1)CC=2 (stereo partly shown) [Compound 3BP-3468] | pIC50 (mouseFAP) (Recombinant mouse FAP; [6]): 9 |
| <6 |  | >10.5 | >150 min |  |  | 8.9 | 9.4 | 8.9 | N#C[C@@H]1CC(F)(F)CN1C(=O)CNC(=O)c1ccnc2ccc(-c3ccc(C(=O)NCCCNC(O)CN4CCN5CCN6CCN(CC4)CC(=O)[O][Eu]([O]C(=O)C6)[O]C(=O)C5)cc3)cc12 (stereo partly shown) [Compound 3BP-3829] |  |
| 6.1 |  |  |  |  |  | 8.7 | 9.3 | 8.8 | Cc1cc(S(C)(=O)=O)ccc1-c1ccc2nccc(C(=O)NCC(=O)N3CC(F)(F)C[C@H]3C#N)c2c1 [Compound 3BP-3952] |  |
| <6 |  |  |  |  |  | 7.3 | 8.5 | 8 | CS(=O)(=O)c1ccc(-c2ccc3nccc(C(=O)NCC(=O)N4C[C@H](F)C[C@H]4C#N)c3c2)cc1 [Compound 3BP-3773] |  |
|  |  |  | 11 min |  |  |  |  |  | N#C[C@@H]1CCCN1C(=O)CNC(=O)c1ccnc2ccc(-c3ccc(C(=O)O)cc3)cc12 [Compound 3BP-3295] | IC50 (recombinant human PREP): > 1000 nM |
| <6 |  |  |  |  |  | 8.5 | 9.3 | 9 | CS(=O)(=O)c1cc(F)c(-c2ccc3nccc(C(=O)NCC(=O)N4CCC[C@H]4C#N)c3c2)c(F)c1 [Compound 3BP-3828] |  |
| <6 |  |  |  |  |  | 7.9 | 9.2 | 8.9 | Cc1cc(S(C)(=O)=O)ccc1-c1ccc2nccc(C(=O)NCC(=O)N3CCC[C@H]3C#N)c2c1 [Compound 3BP-3953] |  |
| <6 | 9 | >10.5 | 130 min | 9.2 | <6 |  |  |  | CS(=O)(=O)c1ccc(-c2ccc3nccc(C(=O)NCC(=O)N4CC(F)(F)C[C@H]4C#N)c3c2)cc1 [Compound 3BP-3233] | pIC50 (mouseFAP) (Recombinant mouse FAP; [6]): 9.1 |

| SMILES | pIC50 (DPP4) (Recombinant human DPP4) | pIC50 (FACS) [1, 4] | pKD (Biacore) (Human recombinant FAP [2]; SPR) | HL [min] (Biacore) (Human recombinant FAP [2]) | pIC50 (Activity) (Human recombinant FAP [3]; [5]) | pIC50 (PREP) (recombinant human PREP) | pIC50 (FACS) ([1]; WI-38 fibroblasts) | pIC50 (Activity) (Human recombinant FAP [3]; [7]) | pIC50 (mouseFAP) (Recombinant mouse FAP; [8]) | other results |
| --- | --- | --- | --- | --- | --- | --- | --- | --- | --- | --- |
| N#C[C@@H]1CCCN1C(=O)CNC(=O)c1ccnc2ccc(-c3ccc(C(=O)NCCCN(CC(=O)O)C(=O)CN4CCN(CC(=O)O)CCN(CC(=O)O)CCN(CC(=O)O)CC4)cc3)cc12 [Compound 3BP-3954, (S)-2,2′,2″-(10-(2-((carboxymethyl)(3-(4-(4-(2-(2-cyanopyrrolidin-1-yl)-2-oxoethylcarbamoyl)quinolin-6-yl)benzamido)propyl)amino)-2-oxoethyl)-1,4,7,10-tetraazacyclododecane-1,4,7-triyl)triacetic Acid] |  |  |  | >150 min |  |  |  |  |  | IC50 (Recombinant human DPP4; read-out: pIC50 (DPP4) (converted)): > 1000 nM; IC50 ([1]; WI-38 fibroblasts): 3.98 nM; Kd (Human recombinant FAP [2]; SPR, read-out: pKD (Biacore) (converted)): < 0.0316 nM; IC50 (Human recombinant FAP [3]; human FAP protease activity, FRET, read-out: pIC50 (Activity) (converted)): 1.26 nM; IC50 (recombinant human PREP): > 1000 nM |
